According to patent publication US20060167115A1, “Compositions for the preservation of timber” (priority 2003, published 2006):

Legend:
Coniophora puteana = assay: Biological screening test (modified EN 113) of TBBA homologues; type: cell-based; details: 8 weeks exposure; for Protective Effect (retention of the active ingredient in the wood): waterborne
Protocol: (§1) The following fungi were employed: Coniophora puteana (Brown rot fungus) and Poria placenta (Brown rot fungus). The following preservatives were tested: TBBF (waterborne), TBBE (waterborne), TBBZ (waterborne) and TBBS (waterborne).
(§2) Five concentrations of each preservative were tested: 3.0%, 2.0%, 1.0%, 0.1% and 0.05% (w/w). All wood blocks were of Scots pine sapwood (Pinus sylvestris) with a volume of 1 cm^3 (10 mm×10 mm×10 mm). Five replicates were used for each test specimen type and six virulence control specimens for each fungus and for each preservative were used as follows: • Treated test specimens: 2 (fungi)×5 (preservative concentrations)×1 (preservative)×5 (replicates)=50 test blocks • Untreated test specimens (for exposure alongside […] test blocks): 2 (fungi)×5 (preservative concentrations)×1 (preservative)×5 (replicates)=50 test blocks • Treated check test specimens: 1 (preservative)×5 (concentrations)×5 (replicates)=25 blocks
(§3) For all actives/preservatives in the test: • Virulence control specimens: 2 (fungi)×6 (replicates)=12 test blocks
(§4) After block treatments were completed, all the blocks were sterilized using ionizing radiation according to the conditions set out in European standard EN 113. The incubation period for the test (length of block exposure to the chosen basidiomycete fungi) was 8 weeks.
(§5) Weight changes for particular waterlogged specimens, when these were clearly unrepresentative of a group, were not included in the mean figures presented.

Poria placenta = assay: as above; type: cell-based; details: 8 weeks exposure; for Protective Effect (retention of the active ingredient in the wood): waterborne
Protocol: as §1, §2, §3, §4, §5

[1] = TBBS waterborne 0.05% w/w, retention 0.4 kg/m^3
[2] = TBBS waterborne 0.1% w/w, retention 0.8 kg/m^3
[3] = TBBE waterborne 0.05% w/w, retention 0.4 kg/m^3
[4] = TBBZ waterborne 0.05% w/w, retention 0.4 kg/m^3, some waterlogging
[5] = TBBF waterborne 0.05% w/w, retention 0.4 kg/m^3

## O=S(=O)(c1cc(Br)c(O)c(Br)c1)c1cc(Br)c(O)c(Br)c1 [TBBS, 4,4′-Sulfonyldi(2,6-dibromophenol)]
Coniophora puteana; [1]
  Corrected mean loss in mass (%): 35.02 (6.61) %
Coniophora puteana; [2]
  Corrected mean loss in mass (%): 35.49 (4.92) %
Coniophora puteana; TBBS waterborne 1.0% w/w, retention 7.6 kg/m^3
  Corrected mean loss in mass (%): No Decay
Coniophora puteana; TBBS waterborne 2.0% w/w, retention 16.1 kg/m^3
  Corrected mean loss in mass (%): No Decay
Coniophora puteana; TBBS waterborne 3.0% w/w, retention 20.2 kg/m^3
  Corrected mean loss in mass (%): No Decay
Coniophora puteana
  Protective Effect (retention of the active ingredient in the wood): 0.8-7.6 kg/m^3
Poria placenta; [1]
  Corrected mean loss in mass (%): No Decay
Poria placenta; [2]
  Corrected mean loss in mass (%): No Decay
Poria placenta; TBBS waterborne 1.0% w/w, retention 7.9 kg/m^3
  Corrected mean loss in mass (%): No Decay
Poria placenta; TBBS waterborne 2.0% w/w, retention 15.3 kg/m^3
  Corrected mean loss in mass (%): No Decay
Poria placenta; TBBS waterborne 3.0% w/w, retention 25.0 kg/m^3
  Corrected mean loss in mass (%): No Decay
Poria placenta
  Protective Effect (retention of the active ingredient in the wood): 0.8-7.9 kg/m^3

## CC(c1cc(Br)c(O)c(Br)c1)c1cc(Br)c(O)c(Br)c1 [TBBE, 4,4′-Ethylidenebis(2,6-dibromophenol)]
Coniophora puteana; [3]
  Corrected mean loss in mass (%): 22.96 (4.81) %
Coniophora puteana; TBBE waterborne 0.1% w/w, retention 0.7 kg/m^3
  Corrected mean loss in mass (%): 26.57 (2.99) %
Coniophora puteana; TBBE waterborne 1.0% w/w, retention 7.9 kg/m^3
  Corrected mean loss in mass (%): No Decay
Coniophora puteana; TBBE waterborne 2.0% w/w, retention 14.7 kg/m^3
  Corrected mean loss in mass (%): No Decay
Coniophora puteana; TBBE waterborne 3.0% w/w, retention 24.7 kg/m^3
  Corrected mean loss in mass (%): No Decay
Coniophora puteana
  Protective Effect (retention of the active ingredient in the wood): 0.7-7.9 kg/m^3
Poria placenta; [3]
  Corrected mean loss in mass (%): No Decay (0.89)
Poria placenta; TBBE waterborne 0.1% w/w, retention 0.8 kg/m^3
  Corrected mean loss in mass (%): 28.67 (14.13) %
Poria placenta; TBBE waterborne 1.0% w/w, retention 8.3 kg/m^3, some waterlogging
  Corrected mean loss in mass (%): No Decay (W)
Poria placenta; TBBE waterborne 2.0% w/w, retention 14.4 kg/m^3, some waterlogging
  Corrected mean loss in mass (%): No Decay (W)
Poria placenta; TBBE waterborne 3.0% w/w, retention 24.6 kg/m^3
  Corrected mean loss in mass (%): No Decay
Poria placenta
  Protective Effect (retention of the active ingredient in the wood): 0.8-8.3 kg/m^3

## Oc1c(Br)cc(C2(c3cc(Br)c(O)c(Br)c3)CCCCC2)cc1Br [TBBZ, 4,4′-Cyclohexylidenebis(2,6-dibromophenol)]
Coniophora puteana; [4]
  Corrected mean loss in mass (%): 33.57 (7.59) (W) %
Coniophora puteana; TBBZ waterborne 1.0% w/w, retention 6.8 kg/m^3
  Corrected mean loss in mass (%): 14.30 (—) %
Coniophora puteana; TBBZ waterborne 2.0% w/w, retention 11.8 kg/m^3
  Corrected mean loss in mass (%): No Decay
Coniophora puteana; TBBZ waterborne 3.0% w/w, retention 17.6 kg/m^3
  Corrected mean loss in mass (%): No Decay
Coniophora puteana
  Protective Effect (retention of the active ingredient in the wood): 0.7-6.8 kg/m^3
Poria placenta; [4]
  Corrected mean loss in mass (%): 0.94 (3.19) (W) %
Poria placenta; TBBZ waterborne 0.1% w/w, retention 0.8 kg/m^3
  Corrected mean loss in mass (%): 33.47 (15.74) %
Poria placenta; TBBZ waterborne 1.0% w/w, retention 5.9 kg/m^3
  Corrected mean loss in mass (%): No Decay
Poria placenta; TBBZ waterborne 2.0% w/w, retention 11.6 kg/m^3
  Corrected mean loss in mass (%): No Decay
Poria placenta; TBBZ waterborne 3.0% w/w, retention 18.6 kg/m^3
  Corrected mean loss in mass (%): No Decay
Poria placenta
  Protective Effect (retention of the active ingredient in the wood): 0.8-5.9 kg/m^3

## Oc1c(Br)cc(Cc2cc(Br)c(O)c(Br)c2)cc1Br [TBBF, Bis(4-hydroxy-3,5-dibromophenyl)methane]
Coniophora puteana; [5]
  Corrected mean loss in mass (%): 26.87 (7.38) %
Coniophora puteana; TBBF waterborne 0.1% w/w, retention 0.8 kg/m^3, some waterlogging
  Corrected mean loss in mass (%): 24.49 (2.12) (W) %
Coniophora puteana; TBBF waterborne 1.0% w/w, retention 7.9 kg/m^3
  Corrected mean loss in mass (%): No Decay
Coniophora puteana; TBBF waterborne 2.0% w/w, retention 15.1 kg/m^3
  Corrected mean loss in mass (%): No Decay
Coniophora puteana; TBBF waterborne 3.0% w/w, retention 23.1 kg/m^3
  Corrected mean loss in mass (%): No Decay
Coniophora puteana
  Protective Effect (retention of the active ingredient in the wood): 0.8-7.9 kg/m^3
Poria placenta; [5]
  Corrected mean loss in mass (%): 24.20 (9.63) %
Poria placenta; TBBF waterborne 0.1% w/w, retention 0.8 kg/m^3
  Corrected mean loss in mass (%): 20.90 (0.23) %
Poria placenta; TBBF waterborne 1.0% w/w, retention 7.7 kg/m^3
  Corrected mean loss in mass (%): No Decay
Poria placenta; TBBF waterborne 2.0% w/w, retention 15.7 kg/m^3
  Corrected mean loss in mass (%): No Decay
Poria placenta; TBBF waterborne 3.0% w/w, retention 20.8 kg/m^3
  Corrected mean loss in mass (%): No Decay
Poria placenta
  Protective Effect (retention of the active ingredient in the wood): 0.8-7.7 kg/m^3
